Values quoted from earlier work, collected in patent US20130259835A1, “BIFIDOBACTERIUM ADOLESCENTIS SPM0212 HAVING ANTIVIRAL ACTIVITY FOR HEPATITIS B VIRUS, AND PHARMACEUTICAL COMPOSITION FOR PREVENTING AND TREATING HEPATITIS B COMPRISING THEREOF” (SAHMYOOK UNIVERSITY INDUSTRY-ACADEMIC COOPERATION, priority 2011, published 2013).

Test system: hepatitis B virus
Settings: administered 3 times a week for at least 3 months; average; cited from earlier work

For interferon-α, the “patients with treatment effect of inhibiting the virus replication” value is listed as 20%.
